Measured values from US8871753B2, “Macrocyclic compounds and their use as kinase inhibitors” (Incyte Corporation, priority 2008, dated 2014).
Structures can show the parent of a compound that is named as a salt.

Experiments:
Type in all cases: biochemical
[1] = biological target: T1, human JAK1 (a.a. 837-1142) (Homo sapiens, UniProt P23458); assay: In vitro JAK kinase assay (HTRF, phosphorylation of a biotinylated peptide), JAK1; settings: Table B1; read-out: JAK1 IC50
T1 construct: human JAK1 (a.a. 837-1142); His tag (N); made in house; host or cells: insect cells (baculovirus)
Method in brief: (§1)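 Phosphorylation of a biotinylated peptide by the JAK kinase domain, detected by HTRF with Eu-Py20 and SA-APC. ATP was 90 μM for JAK1, 30 μM for JAK2 and 3 μM for JAK3. Reactions ran 1 h at room temperature and were stopped with EDTA, followed by 40 min antibody binding.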

[2] = biological target: T2, human JAK2 (a.a. 828-1132) (Homo sapiens, UniProt O60674); assay: In vitro JAK kinase assay (HTRF, phosphorylation of a biotinylated peptide), JAK2; settings: Table B1
T2 construct: JAK2 (a.a. 828-1132); His tag (N); made in house; host or cells: insect cells (baculovirus)
Method in brief: as §1

[3] = biological target: T3, human JAK3 (a.a. 781-1124) (Homo sapiens, UniProt P52333); assay: In vitro JAK kinase assay (HTRF, phosphorylation of a biotinylated peptide), JAK3; settings: Table B1
T3 construct: JAK3 (a.a. 781-1124); His tag (N); made in house; host or cells: insect cells (baculovirus)
Method in brief: as §1

TYK2 = TYK2 (Homo sapiens, UniProt P29597); assay: TYK2 kinase inhibition (Table A1); settings: Table B1
[4] = biological target: T4, Recombinant Human Anaplastic Lymphoma Kinase (Homo sapiens, UniProt Q9UM73); assay: ALK HTRF kinase assay; settings: compound at a concentration of 500 nM or 1 mM (not specified); cells shown as percentage
T4 construct: purchased Invitrogen, Carlsbad, Calif
Method in brief: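 IC50 was obtained from a logistic fit of signal versus log inhibitor concentration, using pre- and post-transition baselines and a Hill slope. The signal reported tyrosine phosphorylation of a biotinylated peptide by recombinant human kinase, detected as Eu-to-APC energy transfer.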

T3 sequence (P52333 781-1124): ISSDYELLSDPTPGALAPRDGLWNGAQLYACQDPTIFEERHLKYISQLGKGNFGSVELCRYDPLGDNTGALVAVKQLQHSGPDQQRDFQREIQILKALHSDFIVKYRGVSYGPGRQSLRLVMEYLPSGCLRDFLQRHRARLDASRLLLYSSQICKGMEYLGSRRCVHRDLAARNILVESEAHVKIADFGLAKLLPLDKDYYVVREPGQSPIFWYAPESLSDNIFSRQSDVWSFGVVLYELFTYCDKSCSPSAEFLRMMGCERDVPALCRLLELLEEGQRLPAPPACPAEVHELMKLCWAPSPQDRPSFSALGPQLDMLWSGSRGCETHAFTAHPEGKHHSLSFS
T2 sequence (O60674 828-1132): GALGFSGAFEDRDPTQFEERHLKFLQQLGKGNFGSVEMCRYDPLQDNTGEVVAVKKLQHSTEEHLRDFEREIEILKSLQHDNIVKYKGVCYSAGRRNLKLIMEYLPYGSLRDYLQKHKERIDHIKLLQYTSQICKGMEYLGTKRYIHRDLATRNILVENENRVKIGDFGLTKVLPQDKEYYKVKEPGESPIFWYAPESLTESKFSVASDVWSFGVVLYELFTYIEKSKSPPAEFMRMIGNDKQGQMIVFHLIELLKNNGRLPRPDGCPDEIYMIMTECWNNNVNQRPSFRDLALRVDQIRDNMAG
T4 sequence (Q9UM73 19-1620): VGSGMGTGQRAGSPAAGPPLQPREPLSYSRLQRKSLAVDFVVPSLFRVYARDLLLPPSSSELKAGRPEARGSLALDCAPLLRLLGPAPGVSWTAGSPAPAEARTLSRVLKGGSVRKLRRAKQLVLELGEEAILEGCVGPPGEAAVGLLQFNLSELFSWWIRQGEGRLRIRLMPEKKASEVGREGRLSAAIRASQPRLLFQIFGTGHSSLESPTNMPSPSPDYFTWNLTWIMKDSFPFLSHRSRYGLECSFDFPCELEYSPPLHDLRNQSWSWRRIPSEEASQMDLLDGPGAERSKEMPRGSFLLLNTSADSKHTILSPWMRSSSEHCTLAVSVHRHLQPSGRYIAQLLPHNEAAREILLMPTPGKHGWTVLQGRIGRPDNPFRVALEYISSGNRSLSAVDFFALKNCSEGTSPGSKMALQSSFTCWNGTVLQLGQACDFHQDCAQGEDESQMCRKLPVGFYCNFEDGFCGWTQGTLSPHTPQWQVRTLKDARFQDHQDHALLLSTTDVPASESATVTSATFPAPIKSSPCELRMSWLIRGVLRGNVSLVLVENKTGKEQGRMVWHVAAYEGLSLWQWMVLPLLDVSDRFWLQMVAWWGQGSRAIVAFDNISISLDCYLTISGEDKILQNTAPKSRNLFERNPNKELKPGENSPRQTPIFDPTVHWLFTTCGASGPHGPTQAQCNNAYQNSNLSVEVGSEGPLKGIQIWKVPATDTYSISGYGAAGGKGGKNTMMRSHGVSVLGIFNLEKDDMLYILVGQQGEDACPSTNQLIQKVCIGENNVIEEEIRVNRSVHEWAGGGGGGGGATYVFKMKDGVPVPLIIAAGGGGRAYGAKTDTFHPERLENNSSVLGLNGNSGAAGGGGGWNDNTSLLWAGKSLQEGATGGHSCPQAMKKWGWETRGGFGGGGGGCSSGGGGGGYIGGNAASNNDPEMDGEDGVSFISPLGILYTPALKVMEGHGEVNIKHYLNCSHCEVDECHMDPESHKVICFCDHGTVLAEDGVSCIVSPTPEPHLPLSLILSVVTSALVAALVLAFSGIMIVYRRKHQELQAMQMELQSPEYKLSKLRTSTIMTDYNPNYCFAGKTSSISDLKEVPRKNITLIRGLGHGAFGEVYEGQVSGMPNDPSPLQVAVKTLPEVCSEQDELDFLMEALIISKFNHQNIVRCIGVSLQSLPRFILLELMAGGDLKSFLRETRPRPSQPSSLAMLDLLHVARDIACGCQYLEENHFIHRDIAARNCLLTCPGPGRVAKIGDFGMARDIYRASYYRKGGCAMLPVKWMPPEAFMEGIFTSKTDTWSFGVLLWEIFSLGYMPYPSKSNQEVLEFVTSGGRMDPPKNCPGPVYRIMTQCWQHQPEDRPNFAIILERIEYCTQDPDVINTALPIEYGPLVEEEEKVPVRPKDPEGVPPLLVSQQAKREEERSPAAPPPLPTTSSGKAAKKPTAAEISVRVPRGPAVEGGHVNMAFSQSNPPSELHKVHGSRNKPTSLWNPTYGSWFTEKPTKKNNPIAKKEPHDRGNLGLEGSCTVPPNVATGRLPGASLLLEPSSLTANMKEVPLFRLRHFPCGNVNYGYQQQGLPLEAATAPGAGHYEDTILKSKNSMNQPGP
Sequence of TYK2 (P29597 whole entry): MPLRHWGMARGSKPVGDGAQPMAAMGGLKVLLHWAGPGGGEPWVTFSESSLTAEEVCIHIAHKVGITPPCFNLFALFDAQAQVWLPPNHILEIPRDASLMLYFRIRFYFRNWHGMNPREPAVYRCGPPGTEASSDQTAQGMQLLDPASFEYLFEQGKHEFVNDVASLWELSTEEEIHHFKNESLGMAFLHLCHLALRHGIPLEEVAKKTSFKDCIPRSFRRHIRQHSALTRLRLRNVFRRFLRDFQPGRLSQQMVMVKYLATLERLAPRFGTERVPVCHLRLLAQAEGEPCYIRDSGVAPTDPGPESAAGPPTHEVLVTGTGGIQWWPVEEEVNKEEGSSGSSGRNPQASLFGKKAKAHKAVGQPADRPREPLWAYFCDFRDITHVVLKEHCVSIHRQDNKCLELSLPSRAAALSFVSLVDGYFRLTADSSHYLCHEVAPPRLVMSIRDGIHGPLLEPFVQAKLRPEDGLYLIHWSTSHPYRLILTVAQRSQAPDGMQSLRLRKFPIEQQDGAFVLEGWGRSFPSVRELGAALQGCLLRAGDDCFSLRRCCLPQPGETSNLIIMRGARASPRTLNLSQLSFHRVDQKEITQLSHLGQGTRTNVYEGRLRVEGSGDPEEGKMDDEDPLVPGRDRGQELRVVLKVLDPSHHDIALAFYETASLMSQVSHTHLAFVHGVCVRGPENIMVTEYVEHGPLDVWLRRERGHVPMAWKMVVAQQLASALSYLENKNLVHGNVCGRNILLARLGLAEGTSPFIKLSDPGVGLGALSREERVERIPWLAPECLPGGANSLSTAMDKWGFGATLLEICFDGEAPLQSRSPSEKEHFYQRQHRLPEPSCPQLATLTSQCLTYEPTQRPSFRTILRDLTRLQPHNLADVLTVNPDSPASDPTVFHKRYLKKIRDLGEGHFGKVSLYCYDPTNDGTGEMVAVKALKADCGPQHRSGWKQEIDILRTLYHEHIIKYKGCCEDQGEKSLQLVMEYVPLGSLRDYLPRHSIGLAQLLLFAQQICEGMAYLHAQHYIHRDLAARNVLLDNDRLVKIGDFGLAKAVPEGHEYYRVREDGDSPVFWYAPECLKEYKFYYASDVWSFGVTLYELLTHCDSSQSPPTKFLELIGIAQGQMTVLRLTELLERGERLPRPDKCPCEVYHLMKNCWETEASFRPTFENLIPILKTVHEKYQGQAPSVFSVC
T1 sequence (P23458 849-1154): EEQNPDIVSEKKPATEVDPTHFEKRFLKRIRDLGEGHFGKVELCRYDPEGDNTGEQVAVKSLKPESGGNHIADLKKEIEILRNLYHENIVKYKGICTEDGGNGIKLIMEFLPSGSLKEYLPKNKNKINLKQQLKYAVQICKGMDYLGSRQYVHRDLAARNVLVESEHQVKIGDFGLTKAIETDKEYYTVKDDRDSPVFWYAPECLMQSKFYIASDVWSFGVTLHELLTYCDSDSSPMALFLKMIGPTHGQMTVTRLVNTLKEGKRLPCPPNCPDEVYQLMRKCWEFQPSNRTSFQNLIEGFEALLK

Row | Compound | IC50 [1] | IC50 [2] | IC50 [3] | IC50 (TYK2) | ALK % of inhibition at a concentration of 500 nM or 1 mM [4]
1 | O=C(Nc1ccccn1)Nc1ccc2cc1CCc1cccc(c1)Nc1ncc(Cl)c(n1)N2 [Example B253, N-[6-Chloro-2,4,8,22-tetraazatetracyclo[14.3.1.1(3,7).1(9,13)]docosa-1(20),3(22),4,6,9(21),10,12,16,18-nonaen-12-yl]-N′-pyridin-2-ylurea bis(trifluoroacetate)] | 0.09 µM | 0.072 µM | 0.695 µM | 0.173 µM | 4.9%
2 | O=C(NCCN1CCOCC1)Nc1ccc2cc1CCc1cccc(c1)Nc1ncc(Cl)c(n1)N2 [Example B254, N-[6-Chloro-2,4,8,22-tetraazatetracyclo[14.3.1.1(3,7).1(9,13)]docosa-1(20),3(22),4,6,9(21),10,12,16,18-nonaen-12-yl]-N′-(2-morpholin-4-ylethyl)urea bis(trifluoroacetate)] | 0.002 µM | 0.0024 µM | 0.026 µM | 0.0082 µM | 18%
3 | CN1CCCC1CCNC(=O)Nc1ccc2cc1CCc1cccc(c1)Nc1ncc(Cl)c(n1)N2 (centres unmarked) [Example B256, N-[6-Chloro-2,4,8,22-tetraazatetracyclo[14.3.1.1(3,7).1(9,13)]docosa-1(20),3(22),4,6,9(21),10,12,16,18-nonaen-12-yl]-N′-[2-(1-methylpyrrolidin-2-yl)ethyl]urea bis(trifluoroacetate)] | 0.0042 µM | 0.013 µM | 0.077 µM | 0.021 µM | 23%
4 | O=C(NCCN1CCCC1=O)Nc1ccc2cc1CCc1cccc(c1)Nc1ncc(Cl)c(n1)N2 [Example B257, N-[6-Chloro-2,4,8,22-tetraazatetracyclo[14.3.1.1(3,7).1(9,13)]docosa-1(20),3(22),4,6,9(21),10,12,16,18-nonaen-12-yl]-N′-[2-(2-oxopyrrolidin-1-yl)ethyl]urea trifluoroacetate] | 0.0073 µM | 0.0095 µM | 0.064 µM | 0.018 µM | 14%
5 | CC(C)(C)OC(=O)N1CCN(CCNC(=O)Nc2ccc3cc2CCc2cccc(c2)Nc2ncc(Cl)c(n2)N3)CC1 [Example B259, tert-Butyl 4-{2-[({[6-chloro-2,4,8,22-tetraazatetracyclo[14.3.1.1(3,7).1(9,13)]docosa-1(20),3(22),4,6,9(21),10,12,16,18-nonaen-12-yl]amino}carbonyl)amino]ethyl}piperazine-1-carboxylate] | 0.0038 µM | 0.007 µM | 0.052 µM | 0.023 µM | 13%
6 | O=C(Nc1ccc2cc1CCc1cccc(c1)Nc1ncc(Cl)c(n1)N2)N[C@H]1CCN(c2ncccn2)C1 [Example B262, N-[6-Chloro-2,4,8,22-tetraazatetracyclo[14.3.1.1(3,7).1(9,13)]docosa-1(20),3(22),4,6,9(21),10,12,16,18-nonaen-12-yl]-N′-[(3S)-1-pyrimidin-2-ylpyrrolidin-3-yl]urea bis(trifluoroacetate)] | 0.0026 µM | 0.0047 µM | 0.038 µM | 0.0087 µM | 19%
7 | Cc1oncc1C(=O)N1CCC(NC(=O)Nc2ccc3cc2CCc2cccc(c2)Nc2ncc(Cl)c(n2)N3)CC1 [Example B264, N-[6-chloro-2,4,8,22-tetraazatetracyclo[14.3.1.1(3,7).1(9,13)]docosa-1(20),3(22),4,6,9(21),10,12,16,18-nonaen-12-yl]-N′-{1-[(5-methylisoxazol-4-yl)carbonyl]piperidin-4-yl}urea trifluoroacetate] | 0.014 µM | 0.025 µM | 0.216 µM | 0.054 µM | 27%
8 | O=C(Nc1ccc2cc1CCc1cncc(c1)Nc1ncc(Cl)c(n1)N2)N[C@H]1CCN(C(=O)c2cn[nH]c2)C1 [Example B267, N-[6-chloro-2,4,8,18,22-pentaazatetracyclo[14.3.1.1(3,7).1(9,13)]docosa-1(20),3(22),4,6,9(21),10,12,16,18-nonaen-12-yl]-N′-[(3S)-1-(1H-pyrazol-4-ylcarbonyl)pyrrolidin-3-yl]urea bis(trifluoroacetate)] | 0.027 µM | 0.765 µM | > 10 µM | 0.887 µM | 12%

The remaining compounds from weak to strong by IC50 [1], led by results:

Row | IC50 [1] | IC50 [2] | IC50 [3] | IC50 (TYK2) | ALK % of inhibition at a concentration of 500 nM or 1 mM [4] | Compound
9 | 0.014 µM | 0.141 µM | 0.085 µM | 0.015 µM | 23% | Cc1cc(C(=O)N2CC[C@H](NC(=O)Nc3ccc4cc3CCc3cncc(c3)Nc3ncc(Cl)c(n3)N4)C2)no1 [Example B265, N-[6-Chloro-2,4,8,18,22-pentaazatetracyclo[14.3.1.1(3,7).1(9,13)]docosa-1(20),3(22),4,6,9(21),10,12,16,18-nonaen-12-yl]-N′-{(3S)-1-[(5-methylisoxazol-3-yl)carbonyl]pyrrolidin-3-yl}urea bis(trifluoroacetate)]
10 | 0.013 µM | 0.026 µM | 0.119 µM | 0.062 µM | 20% | O=C(Nc1ncc(Cl)s1)Nc1ccc2cc1CCc1cccc(c1)Nc1ncc(Cl)c(n1)N2 [Example B252, N-[6-Chloro-2,4,8,22-tetraazatetracyclo[14.3.1.1(3,7).1(9,13)]docosa-1(20),3(22),4,6,9(21),10,12,16,18-nonaen-12-yl]-N′-(5-chloro-1,3-thiazol-2-yl)urea trifluoroacetate]
11 | 0.0098 µM | 0.273 µM | > 10 µM | 0.541 µM | 16% | O=C(Nc1ccc2cc1CCc1cncc(c1)Nc1ncc(Cl)c(n1)N2)N[C@H]1CCN(C(=O)c2ccn[nH]2)C1 [Example B268, N-[6-Chloro-2,4,8,18,22-pentaazatetracyclo[14.3.1.1(3,7).1(9,13)]docosa-1(20),3(22),4,6,9(21),10,12,16,18-nonaen-12-yl]-N′-[(3S)-1-(1H-pyrazol-5-ylcarbonyl)pyrrolidin-3-yl]urea bis(trifluoroacetate)]
12 | 0.0095 µM | 0.029 µM | 0.081 µM | 0.081 µM | 24% | CN1CC[C@H](NC(=O)Nc2ccc3cc2CCc2cccc(c2)Nc2ncc(Cl)c(n2)N3)C1 [Example B261, N-[6-Chloro-2,4,8,22-tetraazatetracyclo[14.3.1.1(3,7).1(9,13)]docosa-1(20),3(22),4,6,9(21),10,12,16,18-nonaen-12-yl]-N′-[(3S)-1-methylpyrrolidin-3-yl]urea bis(trifluoroacetate)]
13 | 0.0067 µM | 0.0093 µM | 0.11 µM | 0.022 µM | 29% | Cc1cc(C(=O)N2CCC(NC(=O)Nc3ccc4cc3CCc3cccc(c3)Nc3ncc(Cl)c(n3)N4)CC2)no1 [Example B263, N-[6-Chloro-2,4,8,22-tetraazatetracyclo[14.3.1.1(3,7).1(9,13)]docosa-1(20),3(22),4,6,9(21),10,12,16,18-nonaen-12-yl]-N′-{1-[(5-methylisoxazol-3-yl)carbonyl]piperidin-4-yl}urea trifluoroacetate]
14 | 0.0055 µM | 0.014 µM | 0.053 µM | 0.025 µM | 32% | O=C(NCCN1CCCC1)Nc1ccc2cc1CCc1cccc(c1)Nc1ncc(Cl)c(n1)N2 [Example B255, N-[6-Chloro-2,4,8,22-tetraazatetracyclo[14.3.1.1(3,7).1(9,13)]docosa-1(20),3(22),4,6,9(21),10,12,16,18-nonaen-12-yl]-N′-(2-pyrrolidin-1-ylethyl)urea bis(trifluoroacetate)]
15 | 0.0049 µM | 0.01 µM | 0.083 µM | 0.024 µM | 29% | O=C(NCCN1CCCCC1)Nc1ccc2cc1CCc1cccc(c1)Nc1ncc(Cl)c(n1)N2 [Example B258, N-[6-Chloro-2,4,8,22-tetraazatetracyclo[14.3.1.1(3,7).1(9,13)]docosa-1(20),3(22),4,6,9(21),10,12,16,18-nonaen-12-yl]-N′-(2-piperidin-1-ylethyl)urea bis(trifluoroacetate)]
16 | 0.0047 µM | 0.0099 µM | 0.051 µM | 0.02 µM | 26% | O=C(NCCN1CCNCC1)Nc1ccc2cc1CCc1cccc(c1)Nc1ncc(Cl)c(n1)N2 [Example B260, N-[6-Chloro-2,4,8,22-tetraazatetracyclo[14.3.1.1(3,7).1(9,13)]docosa-1(20),3(22),4,6,9(21),10,12,16,18-nonaen-12-yl]-N′-(2-piperazin-1-ylethyl)urea trihydrochloride]
